Experimental data from ChEMBL document CHEMBL2440076, “New triarylpyrazoles as broad-spectrum anticancer agents: design, synthesis, and biological evaluation” (Eur J Med Chem, 2013).

Legend:
SNB-19 [1] = assay: Growth inhibition of human SNB19 cells assessed as cell growth at 10 uM after 48 hrs by sulforhodamine B assay; type: functional; conditions: SNB-19, 48 h, read-out: Activity
MDA-MB-435 = assay: Growth inhibition of human MDA-MB-435 cells after 48 hrs by sulforhodamine B assay; type: functional, cell-based; conditions: MDA-MB-435, 48 h
HCT-15 [2] = assay: Growth inhibition of human HCT15 cells after 48 hrs by sulforhodamine B assay; type: functional; conditions: HCT-15, 48 h
M14 [3] = assay: Growth inhibition of human M14 cells after 48 hrs by sulforhodamine B assay; type: functional; conditions: M14, 48 h
TK-10 = assay: Growth inhibition of human TK10 cells assessed as cell growth at 10 uM after 48 hrs by sulforhodamine B assay; type: functional; conditions: TK-10, 48 h, read-out: Activity
[4] = Growth inhibition of human NCI-ADR-RES cells after 48 hrs by sulforhodamine B assay; type: functional
HCT-15 [5] = assay: Growth inhibition of human HCT15 cells assessed as cell growth at 10 uM after 48 hrs by sulforhodamine B assay; type: functional; conditions: HCT-15, 48 h, read-out: Activity
A498 = assay: Growth inhibition of human A498 cells after 48 hrs by sulforhodamine B assay; type: functional, cell-based; conditions: A498, 48 h
SK-MEL-28 = assay: Growth inhibition of human SK-MEL-28 cells assessed as cell growth at 10 uM after 48 hrs by sulforhodamine B assay; type: functional; conditions: SK-MEL-28, 48 h, read-out: Activity
UACC-257 = assay: Growth inhibition of human UACC257 cells after 48 hrs by sulforhodamine B assay; type: functional; conditions: UACC-257, 48 h
A549 [6] = assay: Growth inhibition of human A549/ATCC cells assessed as cell growth at 10 uM after 48 hrs by sulforhodamine B assay; type: functional; conditions: A549, 48 h, read-out: Activity
A549 [7] = assay: Growth inhibition of human A549/ATCC cells after 48 hrs by sulforhodamine B assay; type: functional; conditions: A549, 48 h
NCI-H322M = assay: Growth inhibition of human NCI-H322M cells after 48 hrs by sulforhodamine B assay; type: functional
[8] = Growth inhibition of human HCC2998 cells assessed as cell growth at 10 uM after 48 hrs by sulforhodamine B assay; type: functional; conditions: HCC 2998, 48 h, read-out: Activity
ACHN = assay: Growth inhibition of human ACHN cells assessed as cell growth at 10 uM after 48 hrs by sulforhodamine B assay; type: functional; conditions: read-out: Activity
SNB-19 [9] = assay: Growth inhibition of human SNB19 cells after 48 hrs by sulforhodamine B assay; type: functional; conditions: SNB-19, 48 h
SNB-75 = assay: Growth inhibition of human SNB75 cells after 48 hrs by sulforhodamine B assay; type: functional; conditions: SNB-75, 48 h
OVCAR-4 = assay: Growth inhibition of human OVCAR4 cells assessed as cell growth at 10 uM after 48 hrs by sulforhodamine B assay; type: functional; conditions: OVCAR-4, 48 h, read-out: Activity
PC-3 = assay: Growth inhibition of human PC3 cells after 48 hrs by sulforhodamine B assay; type: functional, cell-based; conditions: PC-3, 48 h
HCT-116 = assay: Growth inhibition of human HCT116 cells after 48 hrs by sulforhodamine B assay; type: functional; conditions: HCT-116, 48 h
SN12C = assay: Growth inhibition of human SN12C cells after 48 hrs by sulforhodamine B assay; type: functional
[10] = Growth inhibition of human Hs 578T cells after 48 hrs by sulforhodamine B assay; type: functional
RXF 393 = assay: Growth inhibition of human RXF393 cells after 48 hrs by sulforhodamine B assay; type: functional; conditions: RXF 393, 48 h
OVCAR-3 = assay: Growth inhibition of human OVCAR3 cells assessed as cell growth at 10 uM after 48 hrs by sulforhodamine B assay; type: functional; conditions: OVCAR-3, 48 h, read-out: Activity
SW-620 = assay: Growth inhibition of human SW620 cells assessed as cell growth at 10 uM after 48 hrs by sulforhodamine B assay; type: functional; conditions: SW-620, 48 h, read-out: Activity
U-251 = assay: Growth inhibition of human U251 cells after 48 hrs by sulforhodamine B assay; type: functional; conditions: U-251, 48 h
HT-29 [11] = assay: Growth inhibition of human HT-29 cells assessed as cell growth at 10 uM after 48 hrs by sulforhodamine B assay; type: functional; conditions: HT-29, 48 h, read-out: Activity
DU-145 [12] = assay: Growth inhibition of human DU145 cells assessed as cell growth at 10 uM after 48 hrs by sulforhodamine B assay; type: functional; conditions: DU-145, 48 h, read-out: Activity
KM12 = assay: Growth inhibition of human KM12 cells assessed as cell growth at 10 uM after 48 hrs by sulforhodamine B assay; type: functional; conditions: KM12, 48 h, read-out: Activity
DU-145 [13] = assay: Growth inhibition of human DU145 cells after 48 hrs by sulforhodamine B assay; type: functional; conditions: DU-145, 48 h
[14] = Growth inhibition of human Hs 578T cells assessed as cell growth at 10 uM after 48 hrs by sulforhodamine B assay; type: functional; conditions: read-out: Activity
M14 [15] = assay: Growth inhibition of human M14 cells assessed as cell growth at 10 uM after 48 hrs by sulforhodamine B assay; type: functional; conditions: M14, 48 h, read-out: Activity
786-0 = assay: Growth inhibition of human 786-0 cells assessed as cell growth at 10 uM after 48 hrs by sulforhodamine B assay; type: functional; conditions: 786-0, 48 h, read-out: Activity
HT-29 [16] = assay: Growth inhibition of human HT-29 cells after 48 hrs by sulforhodamine B assay; type: functional; conditions: HT-29, 48 h
SK-MEL-2 = assay: Growth inhibition of human SK-MEL-2 cells assessed as cell growth at 10 uM after 48 hrs by sulforhodamine B assay; type: functional; conditions: SK-MEL-2, 48 h, read-out: Activity
[17] = read-out: LC50 (the source's name)

**Q.** Which growth at 10 µM (SNB-19 [1]) does the source give for `O=C(Nc1cccc(-n2cc(-c3ccncc3)c(-c3ccc(Cl)c(O)c3)n2)c1)Nc1cc(C(F)(F)F)cc(C(F)(F)F)c1` here?
**A.** 11.3%

**Q.** What about the GI50 (MDA-MB-435) of the same compound?
**A.** 0.91 µM

**Q.** What about the IC50 (MDA-MB-435) of the same compound?
**A.** 0.91 µM

**Q.** And the TGI (MDA-MB-435)?
**A.** 2.59 µM

**Q.** What about the CC50 (MDA-MB-435; [17]) of the same compound?
**A.** 15.6 µM

**Q.** And the GI50 (HCT-15 [2])?
**A.** 0.474 µM

**Q.** What about the LC50 (HCT-15 [2]) of the same compound?
**A.** 21.2 µM

**Q.** And the TGI (HCT-15 [2])?
**A.** 3.52 µM

**Q.** And the GI50 (M14 [3])?
**A.** 0.607 µM

**Q.** What about the LC50 (concentration killing 50% of cells) (M14 [3]) of the same compound?
**A.** 6.06 µM

**Q.** And the TGI (M14 [3])?
**A.** 1.81 µM

**Q.** And the growth at 10 µM (TK-10)?
**A.** -24.6%

**Q.** And the GI50 [4]?
**A.** 1.07 µM

**Q.** What about the TGI [4] of the same compound?
**A.** 5.25 µM

**Q.** What about the CC50 [4, 17] of the same compound?
**A.** 38.7 µM

**Q.** And the growth at 10 µM (HCT-15 [5])?
**A.** -7.23%

**Q.** And the GI50 (A498)?
**A.** 0.792 µM

**Q.** And the IC50 (A498)?
**A.** 0.79 µM

**Q.** What about the TGI (A498) of the same compound?
**A.** 4.33 µM

**Q.** What about the CC50 (A498; [17]) of the same compound?
**A.** 16 µM

**Q.** What about the growth at 10 µM (SK-MEL-28) of the same compound?
**A.** -62.4%

**Q.** What about the GI50 (UACC-257) of the same compound?
**A.** 0.965 µM

**Q.** And the TGI (UACC-257)?
**A.** 2.55 µM

**Q.** What about the CC50 (UACC-257; [17]) of the same compound?
**A.** 10.6 µM

**Q.** What about the growth at 10 µM (A549 [6]) of the same compound?
**A.** -32.5%

**Q.** And the GI50 (A549 [7])?
**A.** 0.298 µM

**Q.** And the LC50 (concentration killing 50% of starting cells) (A549 [7])?
**A.** 11.4 µM

**Q.** What about the TGI (A549 [7]) of the same compound?
**A.** 1.69 µM

**Q.** What about the GI50 (NCI-H322M) of the same compound?
**A.** 1.31 µM

**Q.** And the TGI (NCI-H322M)?
**A.** 5.39 µM

**Q.** And the CC50 (NCI-H322M; [17])?
**A.** 23.6 µM

**Q.** What about the growth at 10 µM [8] of the same compound?
**A.** -56.9%

**Q.** What about the growth at 10 µM (ACHN) of the same compound?
**A.** 8.48%

**Q.** What about the GI50 (SNB-19 [9]) of the same compound?
**A.** 0.983 µM

**Q.** And the LC50 (concentration killing 50% of cells) (SNB-19 [9])?
**A.** > 50 µM

**Q.** What about the TGI (SNB-19 [9]) of the same compound?
**A.** 8.96 µM

**Q.** And the GI50 (SNB-75)?
**A.** 0.877 µM

**Q.** And the LC50 (lethal concentration, 50% net cell kill) (SNB-75)?
**A.** 7.03 µM

**Q.** And the TGI (SNB-75)?
**A.** 2.18 µM

**Q.** And the growth at 10 µM (OVCAR-4)?
**A.** 0.87%

**Q.** And the GI50 (PC-3)?
**A.** 0.319 µM

**Q.** What about the IC50 (PC-3) of the same compound?
**A.** 0.32 µM

**Q.** What about the TGI (PC-3) of the same compound?
**A.** 4.37 µM

**Q.** And the CC50 (PC-3; [17])?
**A.** > 50 µM

**Q.** And the GI50 (HCT-116)?
**A.** 0.428 µM

**Q.** What about the TGI (HCT-116) of the same compound?
**A.** 1.11 µM

**Q.** What about the CC50 (HCT-116; [17]) of the same compound?
**A.** 2.65 µM

**Q.** What about the GI50 (SN12C) of the same compound?
**A.** 1.03 µM

**Q.** What about the TGI (SN12C) of the same compound?
**A.** 5.45 µM

**Q.** What about the CC50 (SN12C; [17]) of the same compound?
**A.** > 50 µM

**Q.** What about the GI50 [10] of the same compound?
**A.** 1.14 µM

**Q.** And the TGI [10]?
**A.** 4.08 µM

**Q.** What about the CC50 [10, 17] of the same compound?
**A.** > 50 µM

**Q.** What about the GI50 (RXF 393) of the same compound?
**A.** 0.937 µM

**Q.** What about the LC50 (concentration killing 50% of cells) (RXF 393) of the same compound?
**A.** 10.7 µM

**Q.** What about the TGI (RXF 393) of the same compound?
**A.** 2.49 µM

**Q.** And the growth at 10 µM (OVCAR-3)?
**A.** -67.5%

**Q.** And the growth at 10 µM (SW-620)?
**A.** 3.32%

**Q.** And the GI50 (U-251)?
**A.** 0.463 µM

**Q.** And the LC50 (concentration killing 50% of cells) (U-251)?
**A.** 2.8 µM

**Q.** What about the TGI (U-251) of the same compound?
**A.** 1.17 µM

**Q.** And the growth at 10 µM (HT-29 [11])?
**A.** -56%

**Q.** What about the growth at 10 µM (DU-145 [12]) of the same compound?
**A.** -28.2%

**Q.** What about the growth at 10 µM (KM12) of the same compound?
**A.** -50.3%

**Q.** And the GI50 (DU-145 [13])?
**A.** 1.25 µM

**Q.** What about the LC50 (DU-145 [13]) of the same compound?
**A.** 17.4 µM

**Q.** And the TGI (DU-145 [13])?
**A.** 5.62 µM

**Q.** And the growth at 10 µM [14]?
**A.** -26%

**Q.** And the growth at 10 µM (M14 [15])?
**A.** -37.2%

**Q.** What about the growth at 10 µM (786-0) of the same compound?
**A.** -46.8%

**Q.** And the GI50 (HT-29 [16])?
**A.** 0.746 µM

**Q.** What about the TGI (HT-29 [16]) of the same compound?
**A.** 1.87 µM

**Q.** What about the CC50 (HT-29 [16]; [17]) of the same compound?
**A.** 4.67 µM

**Q.** And the growth at 10 µM (SK-MEL-2)?
**A.** -73.7%
